PubChem BioAssay (NCI)
Values joined by “and” are separate entries in the source; they are usually repeats but may differ in a detail not shown here. Equal values may be shown once.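 Each compound was tested at five concentrations against cells in 96-well plates for 48 hours. Here, GI50 denotes the concentration required for 50% inhibition of growth. TGI: total growth inhibition.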

Legend:
Experiment in all cases: NCI-60 cell line screen, 48 h
TK-10 renal = tested on: TK-10 renal
SR leukemia = tested on: SR leukemia
HS 578T breast = tested on: HS 578T breast
HOP-62 NSCLC = tested on: HOP-62 NSCLC
K-562 leukemia = tested on: K-562 leukemia
OVCAR-3 ovarian = tested on: OVCAR-3 ovarian
SF-268 CNS = tested on: SF-268 CNS
MDA-MB-231 breast = tested on: MDA-MB-231 breast
HL-60(TB) leukemia = tested on: HL-60(TB) leukemia
HCT-116 colon = tested on: HCT-116 colon

Row | Compound | TGI (TK-10 renal) | TGI (SR leukemia) | TGI (HS 578T breast) | TGI (HOP-62 NSCLC) | TGI (K-562 leukemia) | TGI (OVCAR-3 ovarian) [µM] | TGI (SF-268 CNS) | TGI (MDA-MB-231 breast) | TGI (HL-60(TB) leukemia) | TGI (HCT-116 colon) | GI50 (TK-10 renal) | GI50 (SR leukemia) [µM] | GI50 (HOP-62 NSCLC) [µM] | GI50 (K-562 leukemia) [µM] | GI50 (OVCAR-3 ovarian) [µM] | GI50 (SF-268 CNS) | GI50 (HL-60(TB) leukemia) [µM] | GI50 (HCT-116 colon) [µM] | GI50 (HS 578T breast) | GI50 (MDA-MB-231 breast) [µM]
1 | CCNC(=O)/C(=C/c1ccc(OC)cc1)c1cc(OC)c(OC)c(OC)c1 | > 69.7 µM | > 100 µM | > 42.2 µM | > 100 µM | > 100 µM | 15 | > 100 µM | > 86.1 µM | 21.9 µM | > 100 µM |  |  |  |  |  |  |  |  |  | 
2 | Cn1c(=O)nc2n(-c3cc(C(F)(F)F)cc(C(F)(F)F)c3)c3ccccc3nc-2c1=O | > 100 µM | > 100 µM |  | > 100 µM | > 100 µM | > 100 | > 100 µM |  | > 100 µM | > 100 µM |  |  |  |  |  |  |  |  |  | 
3 | COC(=O)/C(=N/O)C(C(=O)C=C(C)C)C(=O)C(=O)Nc1nc2ccc([N+](=O)[O-])cc2s1 (stereo not drawn) | 95.8 µM | > 100 µM |  | > 100 µM | > 100 µM | 76.1 | 99.2 µM |  | > 100 µM | > 100 µM |  |  |  |  |  |  |  |  |  | 
4 | COC(=O)C(=O)C(C(C)=O)C(=O)NCc1ccc(OC)c(OC)c1 (stereo not drawn) | > 100 µM | > 100 µM |  | > 100 µM | > 100 µM | > 100 | > 100 µM |  | > 100 µM | > 100 µM |  |  |  |  |  |  |  |  |  | 
5 | COC(=O)C1C(O)C(C(=O)OC)C(C)N(C)C1C (stereo not drawn) | > 100 µM | > 100 µM |  | > 100 µM | > 100 µM | > 100 |  | > 100 µM | > 100 µM | > 100 µM |  |  |  |  |  |  |  |  |  | 
6 | COc1cccc(/C=N/[N-]C(=O)c2ccncc2)c1[O-].COc1cccc(/C=N/[N-]C(=O)c2ccncc2)c1[O-].[O]=[U](=[O])([OH2+])[OH2+] | > 31.6 µM | > 100 µM |  | 24.9 µM | > 100 µM | > 100 | 49.4 µM |  | > 100 µM | > 100 µM | 13.1 µM | 3.37 | 3.71 | 5.29 | 3.08 | 4.83 µM | 2.43 | 4.8 |  | 
7 | CCC1CN2CCc3cc(OC)c(OC)cc3C2CC1CC1c2cc(OC)c(OC)cc2CCN1C(=O)C1CCCN1 (stereo not drawn) | > 100 µM | 85.1 µM |  | 71.2 µM | 51.4 µM | 90 | 65.2 µM |  | 43.9 µM | 55 µM |  |  |  |  |  |  |  |  |  | 
8 | Cn1cc(-c2csc(-c3cn(CCCCN4CCCCC4)c4ccccc34)n2)c2cccnc21 | 3.05 µM |  | 4.16 µM | 3.19 µM |  | 3.13 | 3.37 µM |  |  |  | 1.61 µM |  | 1.6 |  | 1.71 | 1.71 µM |  |  | 1.67 µM | 
9 | COC(=O)/C([Se]c1c(C)cc(C)cc1C)=C(/[Se]c1c(C)cc(C)cc1C)C(=O)OC | > 100 µM | > 100 µM |  | > 100 µM | > 100 µM | > 100 | > 100 µM |  | > 100 µM | > 100 µM |  |  |  |  |  |  |  |  |  | 
10 | ClCCN(CCCl)c1ccc(CNc2ccccc2)cc1 |  | > 100 µM | 83.2 µM | > 100 µM | > 100 µM | > 100 | > 100 µM | > 100 µM | 54 µM | > 100 µM |  | 0.674 | 6.32 | 8.66 | 15.2 | 4.25 µM | 2.44 | 9.67 | 12.4 µM | 28.5
11 | CCCC/C(=C\C1=C(C)C(=O)C(OC)=C(OC)C1=O)C(=O)O | > 100 µM |  | > 100 µM | > 100 µM | > 100 µM | > 100 | > 100 µM | > 100 µM | > 100 µM | > 100 µM | > 100 µM |  | > 100 | 50.1 | > 100 | > 100 µM | 66.3 | > 100 | > 100 µM | 33.9
12 | CC1(C)CN=C(NN=C(/C=C/c2ccc(C(F)(F)F)cc2)/C=C/c2ccc(C(F)(F)F)cc2)NC1 | 3.37 µM |  | 3.64 µM | 3.56 µM |  | 3.05 | 3.12 µM | 1.91 µM | 4.35 µM | 2.75 µM | 1.91 µM |  | 1.93 |  | 1.67 | 1.51 µM | 2.03 | 1.32 | 1.56 µM | 0.477
13 | N#CCCN1C/C(=C/c2ccc(Br)cc2)C(=O)/C(=C/c2ccc(Br)cc2)C1 | 5.44 µM |  |  | 3.57 µM | > 100 µM |  |  | 11.4 µM | > 100 µM | 0.345 µM | 2.45 µM |  | 1.66 | 0.454 |  |  | 2.55 | 0.181 |  | 2.95
14 | CCC/C=C/C=C/C1CC(O)C(O)C(=O)C1CO (stereo not drawn) | > 100 µM |  | > 100 µM |  | > 100 µM | > 100 | > 100 µM | > 100 µM | > 100 µM | > 100 µM |  |  |  |  |  |  |  |  |  | 
15 | O=C(Cc1nc2c3c(ccc2[nH]c1=O)C(=O)c1ccccc1C3=O)C(=O)Nc1ccccc1[N+](=O)[O-] | 44.8 µM | 51.1 µM |  | 39.2 µM | 37 µM | 25.6 | 31.5 µM |  | 43.7 µM | 65.4 µM |  |  |  |  |  |  |  |  |  | 
16 | O=C(O)c1cccc(COc2ccc([N+](=O)[O-])cc2Cl)c1 | > 100 µM |  |  | > 100 µM | > 100 µM | > 100 | 85.6 µM | > 100 µM | > 100 µM | > 100 µM | 27.2 µM |  | > 100 | 37.2 | 50.3 | 7.71 µM | 58.5 | > 100 |  | > 100
17 | NCCNCC1CCNCC1 | > 100 µM | > 100 µM | > 100 µM | > 100 µM | > 100 µM | > 100 | > 100 µM | > 100 µM |  | > 100 µM |  |  |  |  |  |  |  |  |  | 
18 | Cc1ccccc1C1=[N+]([O-])c2ccc(Cl)cc2C1=O | 34.5 µM | 64.2 µM |  | 42.6 µM | 24.1 µM | 7.17 | 33.1 µM |  | 6.22 µM | 19.5 µM |  |  |  |  |  |  |  |  |  | 
19 | CN(C)C(=S)SSC(=S)N(C)C | 30.6 µM and > 100 µM and > 70.6 µM | 74.6 µM and 27.8 µM and 34.8 µM | 40.9 µM and > 100 µM and > 90.6 µM | 34.8 µM and > 100 µM | > 100 µM and 16.5 µM |  | 29 µM and > 100 µM and 32.8 µM | 42.9 µM and 32 µM and 53.5 µM | 70.6 µM and 9.41 µM and 10.8 µM | 28.9 µM and 30.4 µM and > 55.9 µM | 16.1 µM and > 100 µM and 26.4 µM |  | 18 |  |  | 15 µM and 42.7 µM and 16.1 µM |  |  | 15.2 µM and > 100 µM and 45 µM | 
20 | N#CC(=Nc1ccccc1N(C(=O)c1ccccc1)C(=O)c1ccccc1)c1ccccc1 | > 100 µM | 24.2 µM |  | > 100 µM | > 60.9 µM | > 100 | > 100 µM |  | > 41.1 µM | > 44.8 µM |  |  |  |  |  |  |  |  |  | 
